Values quoted from earlier work, collected in US20080057002A1, “Non-aqueous compositions containing urea and allantoin and methods for preparing same” (priority 2006, published 2008).

Settings: expressed in g/100 g solvent @25 degree. C.

solubility of allantoin in ethanol (ethanol): < 0.1% | solubility of allantoin in propylene glycol (propylene glycol): < 0.1% | solubility of allantoin in water (water): 0.45%
SMILES: NC(=O)NC1NC(=O)NC1=O (stereo not drawn) [allantoin, (2,5-dioxo-4-imidazolidinyl) urea]
